Experimental data taken from the OPERA property sets (Mansouri et al. 2018).

Row | SMILES | logP
1 | O=c1[nH]c(=O)n(-c2ccccc2)o1 | 1.74
2 | O=C1NC(=O)C(Cc2ccccc2)O1 (configuration not stated) | 1.2
3 | NS(=O)(=O)NC(=O)Cc1ccccc1 | 0.31
4 | O=C1CN(c2ccccc2)C(=O)N1 | 0.83
5 | O=C1NC(=O)C(Cc2ccccc2)S1 (configuration not stated) | 1.98
6 | O=C1CNC(=O)N1c1ccccc1 | 0.04
7 | O=C1NC(=O)N(c2ccccc2)C1=O | 0.6
8 | O=C1NC(=O)C(Cc2ccccc2)N1 (configuration not stated) | 0.6
9 | NC(=O)NS(=O)(=O)Cc1ccccc1 | 0.24
10 | O=C1NC(=O)N(Cc2ccccc2)C1=O | 1.19
11 | O=C1CN(Cc2ccccc2)C(=O)N1 | 0.76

Further lines, results first:

Row | logP | SMILES
12 | 2.26 | O=C1NC(=O)C(c2ccccc2)C1=O (configuration not stated)
13 | 1.09 | O=C1NC(=O)C(c2ccccc2)O1 (configuration not stated)
14 | 1.47 | O=C1CC(=O)C(c2ccccc2)O1 (configuration not stated)
15 | 0.54 | O=C1CC(=O)N(c2ccccc2)O1
16 | 0.76 | O=C1CC(=O)N(Cc2ccccc2)C1
17 | 0.48 | O=C1CC(=O)C(c2ccccc2)N1 (configuration not stated)
